In US7829589B2, “Sulfonamide compounds and uses thereof” (Elixir Pharmaceuticals, Inc., priority 2005, dated 2010):

Target: GHS-R (Homo sapiens, UniProt Q92847)
Assay: GHS-R antagonist activity (Ki) in a cell based assay
Protocol: Cell-Based Activity Assays. For example, the ability of the compound to modulate accumulation of a second messenger signaling component downstream of GHS-R can be evaluated. For example, inositol phosphates (IP), as a result of Gq signaling in a mammalian cell, e.g., a Cos-7 cells. Other tissue culture cells, Xenopus oocytes, and primary cells can also be used.
Phosphatidylinositol turnover assay. One day after transfection COS-7 cells are incubated for 24 hours with 5 μCi of [^3H]-myo-inositol in 1 ml medium supplemented with 10% fetal calf serum, 2 mM glutamine and 0.01 mg/ml gentamicin per well. Cells are then washed twice in buffer, 20 mM HEPES, pH 7.4, supplemented with 140 mM NaCl, 5 mM KCl, 1 mM MgSO4, 1 mM CaCl2, 10 mM glucose, 0.05% (w/v) bovine serum; and incubated in 0.5 ml buffer supplemented with 10 mM LiCl at 37° C. for 30 min. For some assays, it is also useful to incubate the cells with adenosine deaminase ADA (200 U/mg, Boehringer Mannheim, Germany) for 30 min in a concentration of 1 U/ml.
After incubation with the compound of interest for 45 min at 37° C., cells are extracted with 10% ice-cold perchloric acid and placed on ice for 30 min. The resulting supernatants are neutralized with KOH in HEPES buffer, and [^3H]-inositol phosphate is purified on Bio-Rad AG 1-X8 anion exchange resin as described. Assays can be run in duplicate, triplicate, etc. […]

Sequence of GHS-R (Q92847 whole entry, species assumed): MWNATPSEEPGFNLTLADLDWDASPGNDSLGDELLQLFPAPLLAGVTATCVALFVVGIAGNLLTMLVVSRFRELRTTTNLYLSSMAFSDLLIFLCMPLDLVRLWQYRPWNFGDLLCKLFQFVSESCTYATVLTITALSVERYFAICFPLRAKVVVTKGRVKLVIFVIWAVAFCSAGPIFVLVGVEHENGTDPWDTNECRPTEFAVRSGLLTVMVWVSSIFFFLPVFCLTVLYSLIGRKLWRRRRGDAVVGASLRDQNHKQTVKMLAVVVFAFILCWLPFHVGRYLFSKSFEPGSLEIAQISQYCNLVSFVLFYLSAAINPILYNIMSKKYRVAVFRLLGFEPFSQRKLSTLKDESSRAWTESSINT

Ki [nM]	SMILES
< 100	CCN(CC)CCCS(=O)(=O)N[C@H](CCc1ccccc1)c1nc(Cn2nnc3ccccc32)n[nH]1 [Compound 124, 3-Diethylamino-propane-1-sulfonic acid [(R)-1-(5-benzotriazol-1-ylmethyl-2H-[1,2,4]triazol-3-yl)-3-phenyl-propyl]-amide]
< 100	CCN(CC)CCCS(=O)(=O)N[C@H](CCc1ccccc1)c1nc(-c2ccc(OC)c(C#N)c2)n[nH]1 [Compound 125, 3-Diethylamino-propane-1-sulfonic acid {(R)-1-[5-(3-cyano-4-methoxy-phenyl)-2H-[1,2,4]triazol-3-yl]-3-phenyl-propyl}-amide]
≥ 1000	CCN(CC)CCS(=O)(=O)N[C@H](CCc1ccccc1)c1nc(-c2c(C)cccc2C)no1 [Compound 36, 2-Diethylamino-ethanesulfonic acid {(R)-1-[3-(2,6-dimethyl-phenyl)-[1,2,4]oxadiazol-5-yl]-3-phenyl-propyl}-amide]
100 to 500	CCN(CC)CCCS(=O)(=O)N[C@H](CCc1ccccc1)c1nc(-c2c(C)cccc2C)no1 [Compound 52, 3-Diethylamino-propane-1-sulfonic acid {(R)-1-[3-(2,6-dimethyl-phenyl)-[1,2,4]oxadiazol-5-yl]-3-phenyl-propyl}-amide]
< 100	CCN(CC)CCCS(=O)(=O)N[C@H](CCc1ccccc1)c1nc(-c2c[nH]c3ccccc23)n[nH]1 [Compound 38, 3-Diethylamino-propane-1-sulfonic acid {(R)-1-[5-(1H-indol-3-yl)-2H-[1,2,4]triazol-3-yl]-3-phenyl-propyl}-amide]
< 100	CCN(CC)CCCS(=O)(=O)N[C@H](CCc1ccccc1)c1nc(CCc2ccc(Br)cc2)no1 [Compound 113, 3-Diethylamino-propane-1-sulfonic acid ((R)-1-{3-[2-(4-bromo-phenyl)-ethyl]-[1,2,4]oxadiazol-5-yl}-3-phenyl-propyl)-amide]
< 100	CCN(CC)CCCS(=O)(=O)N[C@H](COCc1ccccc1)c1nc(-c2c(Cl)cccc2Cl)no1 [Compound 2, 3-Diethylamino-propane-1-sulfonic acid {(R)-2-benzyloxy-1-[3-(2,6-dichloro-phenyl)-[1,2,4]oxadiazol-5-yl]-ethyl}-amide]
< 100	CCN(CC)CCCS(=O)(=O)N[C@H](CCc1ccccc1)c1nc(-c2cccc(Cl)c2)n[nH]1 [Compound 70, 3-Diethylamino-propane-1-sulfonic acid {(R)-1-[5-(3-chloro-phenyl)-2H-[1,2,4]triazol-3-yl]-3-phenyl-propyl}-amide]
< 100	CCN(CC)CCCS(=O)(=O)N[C@H](CCc1ccccc1)c1nc(-c2ccc(C)cc2)no1 [Compound 71, 3-Diethylamino-propane-1-sulfonic acid [(R)-3-phenyl-1-(3-p-tolyl-[1,2,4]oxadiazol-5-yl)-propyl]-amide]
< 100	CCN(CC)CCS(=O)(=O)N[C@H](CCc1ccccc1)c1nc(Cc2c(Cl)cccc2Cl)no1 [Compound 90, 2-Diethylamino-ethanesulfonic acid {(R)-1-[3-(2,6-dichloro-benzyl)-[1,2,4]oxadiazol-5-yl]-3-phenyl-propyl}-amide]
≥ 1000	CCN(CC)CCCS(=O)(=O)N[C@H](COCc1ccccc1)c1nc(-c2ccccc2C)no1 [Compound 33, 3-Diethylamino-propane-1-sulfonic acid [(R)-2-benzyloxy-1-(3-o-tolyl-[1,2,4]oxadiazol-5-yl)-ethyl]-amide]

Continued, compound first:

SMILES	Ki [nM]
CCN(CC)CCS(=O)(=O)N[C@H](CCc1ccccc1)c1nc(-c2ccccc2OC)no1 [Compound 19, 2-Diethylamino-ethanesulfonic acid {(R)-1-[3-(2-methoxy-phenyl)-[1,2,4]oxadiazol-5-yl]-3-phenyl-propyl}-amide]	≥ 1000
CCN(CC)CCCS(=O)(=O)N[C@H](CCc1ccccc1)c1nc(Cc2c(Cl)cccc2Cl)no1 [Compound 73, 3-Diethylamino-propane-1-sulfonic acid {(R)-1-[3-(2,6-dichloro-benzyl)-[1,2,4]oxadiazol-5-yl]-3-phenyl-propyl}-amide]	< 100
CCN(CC)CCCS(=O)(=O)N[C@@H](CCc1ccccc1)c1nc(-c2ccccc2C)no1 [Compound 21, 3-Diethylamino-propane-1-sulfonic acid [(S)-3-phenyl-1-(3-o-tolyl-[1,2,4]oxadiazol-5-yl)-propyl]-amide]	100 to 500
CCN(CC)CCS(=O)(=O)N[C@H](CCc1ccccc1)c1nc(-c2ncccc2C)no1 [Compound 14, 2-Diethylamino-ethanesulfonic acid {(R)-1-[3-(3-methyl-pyridin-2-yl)-[1,2,4]oxadiazol-5-yl]-3-phenyl-propyl}-amide]	100 to 500
CCN(CC)CCCS(=O)(=O)N[C@H](CCc1ccccc1)c1nc(-c2cncn2C)n[nH]1 [Compound 135]	< 100
CCN(CC)CCS(=O)(=O)N[C@H](CCc1ccccc1)c1nc(-c2ccc(Br)cc2)no1 [Compound 79, 2-Diethylamino-ethanesulfonic acid {(R)-1-[3-(4-bromo-phenyl)-[1,2,4]oxadiazol-5-yl]-3-phenyl-propyl}-amide]	100 to 500
CCN(CC)CCCS(=O)(=O)N[C@H](CCc1ccccc1)c1nc(-c2ccc3occc3c2)n[nH]1 [Compound 130, 3-Diethylamino-propane-1-sulfonic acid [(R)-1-(5-benzofuran-5-yl-2H-[1,2,4]triazol-3-yl)-3-phenyl-propyl]-amide]	< 100
CCN(CC)CCCS(=O)(=O)N[C@H](CCc1ccccc1)c1nc(-c2cccc(C)c2)n[nH]1 [Compound 61, 3-Diethylamino-propane-1-sulfonic acid [(R)-3-phenyl-1-(5-m-tolyl-2H-[1,2,4]triazol-3-yl)-propyl]-amide]	< 100
CCN(CC)CCCS(=O)(=O)N[C@H](CCc1ccccc1)c1nc(Cc2ccc(OC)cc2)no1 [Compound 111, 3-Diethylamino-propane-1-sulfonic acid {(R)-1-[3-(4-methoxy-benzyl)-[1,2,4]oxadiazol-5-yl]-3-phenyl-propyl}-amide]	< 100
CCN(CC)CCCS(=O)(=O)N1CC[C@H]1c1nc(Cc2ccc(Br)cc2)no1 [Compound 149, (S)-(3-{2-[3-(4-Bromo-benzyl)-[1,2,4]oxadiazol-5-yl]-azetidine-1-sulfonyl}-propyl)-diethyl-amine]	< 100
CCN(CC)CCCS(=O)(=O)N[C@H](CCc1ccccc1)c1nc(Cc2ccccc2)no1 [Compound 116, 3-Diethylamino-propane-1-sulfonic acid [(R)-1-(3-benzyl-[1,2,4]oxadiazol-5-yl)-3-phenyl-propyl]-amide]	100 to 500
CCN(CC)CCCS(=O)(=O)N[C@H](COCc1ccccc1)c1nc(-c2ccncc2)no1 [Compound 51, 3-Diethylamino-propane-1-sulfonic acid [(R)-2-benzyloxy-1-(3-pyridin-4-yl-[1,2,4]oxadiazol-5-yl)-ethyl]-amide]	≥ 1000
CCN(CC)CCCS(=O)(=O)N[C@H](CCc1ccccc1)c1nc(CCc2ccccc2)no1 [Compound 97, 3-Diethylamino-propane-1-sulfonic acid [(R)-1-(3-phenethyl-[1,2,4]oxadiazol-5-yl)-3-phenyl-propyl]-amide]	< 100
CCN(CC)CCCS(=O)(=O)N[C@H](CCc1ccccc1)c1nc(-c2ccc3sccc3c2)n[nH]1 [Compound 129, 3-Diethylamino-propane-1-sulfonic acid [(R)-1-(5-benzo[b]thiophen-5-yl-2H-[1,2,4]triazol-3-yl)-3-phenyl-propyl]-amide]	< 100
